Reference: publication PMC9234961 (Journal of Medicinal Chemistry, 2022)
Like-named read-outs stand apart in the source and are kept apart here.

How the values were obtained:
kinases (468) [1] = biological target: kinases (468) (Homo sapiens, UniProt Q08881); settings: ITK; 1000 nM
kinases (468) [2] = biological target: kinases (468) (Homo sapiens, UniProt Q8NE63); settings: HIPK4; 1000 nM
kinases (468) [3] = biological target: kinases (468) (Homo sapiens, UniProt P00519); settings: 1000 nM
kinases (468) [4] = biological target: kinases (468) (Homo sapiens, UniProt P36507); settings: MEK2 (MAP2K2); 1000 nM
kinases (468) [5] = biological target: kinases (468) (Homo sapiens, UniProt P45985); settings: MEK4 (MAP2K4); 1000 nM
kinases (468) [6] = biological target: kinases (468) (Homo sapiens, UniProt Q9H1R3); settings: MYLK2; 1000 nM
kinases (468) [7] = biological target: kinases (468) (Homo sapiens, UniProt P06213); settings: INSR; 1000 nM
kinases (468) [8] = biological target: kinases (468) (Homo sapiens, UniProt Q15835); settings: GRK1; 1000 nM
kinases (468) [9] = biological target: kinases (468) (Homo sapiens, UniProt P30291); settings: kinase WEE1 (Entrez WEE1); compound concentration 1000 nM
kinases (468) [10] = biological target: kinases (468) (Homo sapiens, UniProt Q96L34); settings: MARK4; 1000 nM
kinases (468) [11] = biological target: kinases (468) (Homo sapiens, UniProt O95819); settings: MAP4K4; 1000 nM
kinases (468) [12] = biological target: kinases (468) (Homo sapiens, UniProt P51813); settings: BMX; 1000 nM
kinases (468) [13] = biological target: kinases (468) (Homo sapiens, UniProt Q8IYT8); settings: kinase ULK2 (Entrez ULK2); compound concentration 1000 nM
kinases (468) [14] = biological target: kinases (468) (Homo sapiens, UniProt Q16620); settings: kinase TRKB (Entrez NTRK2); compound concentration 1000 nM
kinases (468) [15] = biological target: kinases (468) (Homo sapiens, UniProt Q9BQI3); settings: EIF2AK1; 1000 nM
kinases (468) [16] = biological target: kinases (468) (Homo sapiens, UniProt P53778); settings: p38-gamma (MAPK12); 1000 nM
kinases (468) [17] = biological target: kinases (468) (Plasmodium falciparum, UniProt P61075); settings: PFPK5(P.falciparum) (MAL13P1.279); 1000 nM
kinases (468) [18] = biological target: kinases (468) (Homo sapiens, UniProt P49761); settings: CLK3; 1000 nM
kinases (468) [19] = biological target: kinases (468) (Homo sapiens, UniProt Q9UEE5); settings: DRAK1 (STK17A); 1000 nM
kinases (468) [20] = biological target: kinases (468) (Homo sapiens, UniProt Q8N5S9); settings: CAMKK1; 1000 nM
kinases (468) [21] = biological target: kinases (468) (Homo sapiens, UniProt Q9UKE5); settings: kinase TNIK (Entrez TNIK); compound concentration 1000 nM
kinases (468) [22] = biological target: kinases (468) (Homo sapiens, UniProt Q9Y4K4); settings: MAP4K5; 1000 nM
kinases (468) [23] = biological target: kinases (468) (Homo sapiens, UniProt O75747); settings: PIK3C2G; 1000 nM
kinases (468) [24] = biological target: kinases (468) (Homo sapiens, UniProt Q9BXA7); settings: kinase TSSK1B (Entrez TSSK1B); compound concentration 1000 nM
kinases (468) [25] = biological target: kinases (468) (Homo sapiens, UniProt Q99759); settings: MAP3K3; 1000 nM
kinases (468) [26] = biological target: kinases (468) (Homo sapiens, UniProt P16591); settings: FER; 1000 nM
kinases (468) [27] = biological target: kinases (468) (Homo sapiens, UniProt O15197); settings: EPHB6; 1000 nM
kinases (468) [28] = biological target: kinases (468) (Homo sapiens, UniProt P10721, T670I/V559D); settings: KIT(V559D,T670I); 1000 nM
kinases (468) [29] = biological target: kinases (468) (Homo sapiens, UniProt P51451); settings: BLK; 1000 nM
kinases (468) [30] = biological target: kinases (468) (Homo sapiens, UniProt Q02750); settings: MEK1 (MAP2K1); 1000 nM
kinases (468) [31] = biological target: kinases (468) (Homo sapiens, UniProt Q8TF76); settings: HASPIN (GSG2); 1000 nM
kinases (468) [32] = biological target: kinases (468) (Homo sapiens, UniProt Q9BUB5); settings: MKNK1; 1000 nM
kinases (468) [33] = biological target: kinases (468) (Homo sapiens, UniProt Q9Y3S1); settings: kinase WNK2 (Entrez WNK2); compound concentration 1000 nM
kinases (468) [34] = biological target: kinases (468) (Homo sapiens, UniProt O43293); settings: DAPK3; 1000 nM
kinases (468) [35] = biological target: kinases (468) (Homo sapiens, UniProt Q9UHD2); settings: kinase TBK1 (Entrez TBK1); compound concentration 1000 nM

Sequence of kinases (468) (Homo sapiens, UniProt P00519) (P00519 whole entry): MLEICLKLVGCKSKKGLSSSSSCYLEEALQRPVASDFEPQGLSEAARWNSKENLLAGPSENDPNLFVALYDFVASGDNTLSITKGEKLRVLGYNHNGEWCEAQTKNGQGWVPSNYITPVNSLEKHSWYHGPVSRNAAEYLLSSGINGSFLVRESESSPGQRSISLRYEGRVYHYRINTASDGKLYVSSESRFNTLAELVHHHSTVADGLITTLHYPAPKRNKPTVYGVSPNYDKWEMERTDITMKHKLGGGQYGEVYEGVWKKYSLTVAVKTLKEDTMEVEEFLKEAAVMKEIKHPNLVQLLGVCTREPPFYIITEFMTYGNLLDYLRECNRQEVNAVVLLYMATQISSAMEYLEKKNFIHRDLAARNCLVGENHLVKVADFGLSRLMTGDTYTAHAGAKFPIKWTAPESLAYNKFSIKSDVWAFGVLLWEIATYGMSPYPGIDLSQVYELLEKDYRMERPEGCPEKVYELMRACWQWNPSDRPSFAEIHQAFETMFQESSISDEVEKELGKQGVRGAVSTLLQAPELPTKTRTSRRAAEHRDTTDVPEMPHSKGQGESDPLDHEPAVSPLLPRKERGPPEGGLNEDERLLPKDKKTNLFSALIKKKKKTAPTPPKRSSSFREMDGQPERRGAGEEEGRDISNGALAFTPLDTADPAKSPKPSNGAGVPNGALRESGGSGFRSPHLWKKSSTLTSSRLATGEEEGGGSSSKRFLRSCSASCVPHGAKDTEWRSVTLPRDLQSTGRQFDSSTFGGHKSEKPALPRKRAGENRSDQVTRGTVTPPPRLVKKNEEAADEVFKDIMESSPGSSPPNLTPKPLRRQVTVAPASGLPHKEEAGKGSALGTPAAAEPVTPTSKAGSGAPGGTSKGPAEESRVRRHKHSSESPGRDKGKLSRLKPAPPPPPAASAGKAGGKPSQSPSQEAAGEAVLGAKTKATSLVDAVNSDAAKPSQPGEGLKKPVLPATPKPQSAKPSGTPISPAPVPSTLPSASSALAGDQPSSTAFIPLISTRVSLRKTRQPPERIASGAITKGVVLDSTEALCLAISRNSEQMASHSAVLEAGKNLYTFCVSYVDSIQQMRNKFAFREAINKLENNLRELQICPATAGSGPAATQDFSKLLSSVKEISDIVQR
Sequence of kinases (468) (Homo sapiens, UniProt P49761) (P49761 whole entry): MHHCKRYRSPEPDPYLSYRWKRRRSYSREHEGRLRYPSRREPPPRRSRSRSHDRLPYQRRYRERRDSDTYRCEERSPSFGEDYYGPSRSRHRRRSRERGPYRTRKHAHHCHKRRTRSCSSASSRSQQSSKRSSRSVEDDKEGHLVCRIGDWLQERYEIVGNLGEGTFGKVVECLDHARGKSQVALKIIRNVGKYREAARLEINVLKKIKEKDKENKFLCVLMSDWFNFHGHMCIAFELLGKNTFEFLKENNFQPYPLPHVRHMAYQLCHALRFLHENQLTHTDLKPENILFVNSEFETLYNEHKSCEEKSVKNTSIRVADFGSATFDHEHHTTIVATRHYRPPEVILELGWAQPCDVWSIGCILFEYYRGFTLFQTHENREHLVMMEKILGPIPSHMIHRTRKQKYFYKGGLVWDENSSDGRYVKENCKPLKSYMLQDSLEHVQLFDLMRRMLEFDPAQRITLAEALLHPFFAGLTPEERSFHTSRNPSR
Sequence of kinases (468) (Homo sapiens, UniProt Q9BXA7) (Q9BXA7 whole entry): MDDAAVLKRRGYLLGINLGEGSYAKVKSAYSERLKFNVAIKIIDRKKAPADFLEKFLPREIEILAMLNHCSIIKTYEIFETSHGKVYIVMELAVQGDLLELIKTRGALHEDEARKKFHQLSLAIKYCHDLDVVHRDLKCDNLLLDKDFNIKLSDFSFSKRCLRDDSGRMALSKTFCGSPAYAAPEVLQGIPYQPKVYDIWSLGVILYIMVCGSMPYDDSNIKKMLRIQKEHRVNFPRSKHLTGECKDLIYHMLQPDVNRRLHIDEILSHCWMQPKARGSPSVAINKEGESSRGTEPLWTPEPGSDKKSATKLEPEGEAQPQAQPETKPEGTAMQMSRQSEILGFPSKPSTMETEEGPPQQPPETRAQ
Sequence of kinases (468) (Homo sapiens, UniProt Q15835) (Q15835 whole entry): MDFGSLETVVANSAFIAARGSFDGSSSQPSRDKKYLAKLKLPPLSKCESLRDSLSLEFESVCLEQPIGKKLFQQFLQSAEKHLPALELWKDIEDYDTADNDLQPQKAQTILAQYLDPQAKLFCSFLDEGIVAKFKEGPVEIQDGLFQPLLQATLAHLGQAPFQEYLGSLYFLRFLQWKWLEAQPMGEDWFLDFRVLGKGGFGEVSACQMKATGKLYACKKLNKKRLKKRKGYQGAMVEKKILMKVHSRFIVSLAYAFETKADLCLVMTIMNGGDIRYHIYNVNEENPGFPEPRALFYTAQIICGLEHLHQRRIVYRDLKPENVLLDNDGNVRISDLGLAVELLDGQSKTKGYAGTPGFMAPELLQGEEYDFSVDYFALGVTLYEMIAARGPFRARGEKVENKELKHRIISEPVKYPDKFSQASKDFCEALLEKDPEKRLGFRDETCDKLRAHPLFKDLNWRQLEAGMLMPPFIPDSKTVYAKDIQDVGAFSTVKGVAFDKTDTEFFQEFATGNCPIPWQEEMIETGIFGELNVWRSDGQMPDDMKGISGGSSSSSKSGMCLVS
Sequence of kinases (468) (Homo sapiens, UniProt P53778) (P53778 whole entry): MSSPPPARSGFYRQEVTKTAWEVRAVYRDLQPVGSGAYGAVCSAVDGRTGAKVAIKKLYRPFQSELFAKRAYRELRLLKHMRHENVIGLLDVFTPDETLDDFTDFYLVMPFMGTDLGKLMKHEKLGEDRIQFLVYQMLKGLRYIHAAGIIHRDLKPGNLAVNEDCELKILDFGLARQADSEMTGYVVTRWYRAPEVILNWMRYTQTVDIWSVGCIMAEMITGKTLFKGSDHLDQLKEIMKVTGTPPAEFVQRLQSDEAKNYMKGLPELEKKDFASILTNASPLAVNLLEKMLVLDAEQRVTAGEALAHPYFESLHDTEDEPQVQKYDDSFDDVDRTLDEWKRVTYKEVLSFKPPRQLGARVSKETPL
Sequence of kinases (468) (Homo sapiens, UniProt Q8NE63) (Q8NE63 whole entry): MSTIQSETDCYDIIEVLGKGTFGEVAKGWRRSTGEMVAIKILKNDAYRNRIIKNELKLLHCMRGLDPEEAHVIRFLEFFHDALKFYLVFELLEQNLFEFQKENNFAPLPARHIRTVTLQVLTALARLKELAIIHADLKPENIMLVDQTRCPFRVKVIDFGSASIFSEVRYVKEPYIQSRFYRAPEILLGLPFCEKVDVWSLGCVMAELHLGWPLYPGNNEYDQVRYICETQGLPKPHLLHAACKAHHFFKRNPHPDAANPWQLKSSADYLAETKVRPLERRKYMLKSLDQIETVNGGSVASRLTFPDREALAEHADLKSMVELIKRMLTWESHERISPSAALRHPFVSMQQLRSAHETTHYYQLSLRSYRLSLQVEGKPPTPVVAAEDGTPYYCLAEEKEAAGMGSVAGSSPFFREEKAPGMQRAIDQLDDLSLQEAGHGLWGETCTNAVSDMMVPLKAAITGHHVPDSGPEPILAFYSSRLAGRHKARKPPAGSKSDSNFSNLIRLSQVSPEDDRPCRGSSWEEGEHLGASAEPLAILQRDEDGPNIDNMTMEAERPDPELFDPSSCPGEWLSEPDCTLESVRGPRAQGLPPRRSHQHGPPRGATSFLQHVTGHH
Sequence of kinases (468) (Homo sapiens, UniProt O43293) (O43293 whole entry): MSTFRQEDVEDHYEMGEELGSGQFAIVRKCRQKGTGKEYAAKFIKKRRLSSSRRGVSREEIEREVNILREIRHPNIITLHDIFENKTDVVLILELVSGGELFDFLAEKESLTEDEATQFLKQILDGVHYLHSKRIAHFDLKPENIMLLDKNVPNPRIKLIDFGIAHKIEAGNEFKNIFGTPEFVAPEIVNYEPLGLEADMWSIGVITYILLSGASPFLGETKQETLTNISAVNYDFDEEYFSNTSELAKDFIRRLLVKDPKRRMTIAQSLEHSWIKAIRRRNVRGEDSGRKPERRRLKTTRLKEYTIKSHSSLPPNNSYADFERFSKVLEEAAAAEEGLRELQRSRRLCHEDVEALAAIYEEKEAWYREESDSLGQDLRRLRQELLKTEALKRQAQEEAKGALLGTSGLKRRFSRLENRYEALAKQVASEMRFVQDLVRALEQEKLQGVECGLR
Sequence of kinases (468) (Homo sapiens, UniProt Q96L34) (Q96L34 whole entry): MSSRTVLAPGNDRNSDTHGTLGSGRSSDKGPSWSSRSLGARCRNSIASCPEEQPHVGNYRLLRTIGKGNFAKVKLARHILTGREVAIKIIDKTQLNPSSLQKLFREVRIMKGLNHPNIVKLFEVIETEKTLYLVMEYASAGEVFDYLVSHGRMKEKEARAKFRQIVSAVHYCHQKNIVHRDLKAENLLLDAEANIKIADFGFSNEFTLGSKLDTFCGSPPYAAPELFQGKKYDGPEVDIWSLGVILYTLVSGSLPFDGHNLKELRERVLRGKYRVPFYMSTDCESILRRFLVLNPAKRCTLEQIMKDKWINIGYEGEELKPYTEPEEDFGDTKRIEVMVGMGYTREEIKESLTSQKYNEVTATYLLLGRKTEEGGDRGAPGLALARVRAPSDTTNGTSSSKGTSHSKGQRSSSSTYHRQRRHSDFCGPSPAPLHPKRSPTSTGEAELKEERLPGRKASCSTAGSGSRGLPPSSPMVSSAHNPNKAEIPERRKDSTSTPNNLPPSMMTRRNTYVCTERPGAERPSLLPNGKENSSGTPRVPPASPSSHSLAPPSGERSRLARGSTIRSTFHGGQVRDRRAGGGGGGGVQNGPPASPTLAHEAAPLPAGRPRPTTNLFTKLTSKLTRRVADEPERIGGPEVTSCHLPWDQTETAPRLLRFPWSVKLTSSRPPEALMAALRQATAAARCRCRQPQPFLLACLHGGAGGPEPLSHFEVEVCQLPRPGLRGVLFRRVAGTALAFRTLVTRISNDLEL

C[C@H]1C[C@@H](O)CN(c2ncc(Cl)c(Nc3ccc4c(c3)c3c(c(=O)n4C)OCC(F)(F)[C@H](C4CC4)N3)n2)C1 [CCT373566_9A]
Percent Control (kinases (468) [1]): 100% | Percent Control (kinases (468) [2]): 96% | Percent Control (kinases (468) [3]; ABL1-nonphosphorylated): 92% | Percent Control (kinases (468) [3]; ABL1-phosphorylated): 99% | Percent Control (kinases (468) [4]): 79% | Percent Control (kinases (468) [5]): 90% | Percent Control (kinases (468) [6]): 100% | Percent Control (kinases (468) [7]): 98% | Percent Control (kinases (468) [8]): 100% | Percent Control (kinases (468) [9]): 89% | Percent Control (kinases (468) [10]): 100% | Percent Control (kinases (468) [11]): 87% | Percent Control (kinases (468) [12]): 100% | Percent Control (kinases (468) [13]): 100% | Percent Control (kinases (468) [14]): 97% | Percent Control (kinases (468) [15]): 72% | Percent Control (kinases (468) [16]): 92% | Percent Control (kinases (468) [17]): 89% | Percent Control (kinases (468) [18]): 97% | Percent Control (kinases (468) [19]): 99% | Percent Control (kinases (468) [20]): 99% | Percent Control (kinases (468) [21]): 94% | Percent Control (kinases (468) [22]): 85% | Percent Control (kinases (468) [23]): 86% | Percent Control (kinases (468) [24]): 100% | Percent Control (kinases (468) [25]): 100% | Percent Control (kinases (468) [26]): 100% | Percent Control (kinases (468) [27]): 93% | Percent Control (kinases (468) [28]): 98% | Percent Control (kinases (468) [29]): 99% | Percent Control (kinases (468) [30]): 90% | Percent Control (kinases (468) [31]): 100% | Percent Control (kinases (468) [32]): 91% | Percent Control (kinases (468) [33]): 100% | Percent Control (kinases (468) [34]): 100% | Percent Control (kinases (468) [35]): 100%
